Test results reported in article PMC11926880, “Procognitive Potential of Neuroprotective Triazine 5-HT6 Receptor Antagonists Tested on Chronic Activity In Vivo in Rats: Computer-Aided Insight into the Role of Chalcogen-Differences on the Pharmacological Profile” (ACS Chemical Neuroscience, 2025).
Read-outs that look alike come from different tables or passages of the source.

Legend:
SH-SY5Y cells [1] = assay: ROS assay (2',7'DCFH2-DA), rotenone-induced neurotoxicity; assay type: cell-based, human
Protocol: The ROS measurement was assayed by 2′,7′-dichlorofluorescin diacetate (2′, 7′DCFH2-DA, Sigma, no. D6883). The protocol was previously described in detail.[10] […] The following day, all treatments were carried out with warmed HBSS containing 25 mM HEPES (hereafter referred to as HBSS), and during the operational steps, the cells were kept at 37 °C to minimize temperature stress.

[2] = parameters: method as in PMID 38190615, PMID 35228010; settings: AMES test; cited from earlier work
SH-SY5Y cells [3] = assay: MTS cell viability assay 27 h; assay type: cell-based, human; settings: for IC50: SH-SY5Y
Protocol: This study used the human neuroblastoma cell line SH-SY5Y (ATCC no. CRL-2266) to investigate the effect on the neuronal cells. The cells (8 × 10^3 cells/100 μL/well) were seeded in transparent 96-well plates (Thermo Scientific, Nunc, no. 161093) in DMEM/F12 (Gibco, no. 11039021) supplemented with 10% FBS (Gibco, no. 10500-064) and cultured overnight. […] Treatment with the compounds was performed for 27 h. After incubation, the cell viability was examined using an MTS-based CellTiter96 AQueous One Solution Cell Proliferation Assay (Promega, Madison, WI, USA) following the manufacturer’s protocol. Briefly, 20 μL of MTS solution was pipetted into each well containing 100 μL of culture or culture medium (negative control) and incubated at 37 °C for 1 h. The absorbance was measured at 490 nm using a Tecan Spark’s multimode plate reader (Tecan, Männedorf, Switzerland). A reference wavelength of 630 nm was used to subtract the background.

5-HT7R = settings: read-out: radioligand binding assay Ki; cloned receptors; cited from earlier work
HT-22 cell line [4] = assay: protection against Aβ1–42, cell membrane damage (ToxiLight); assay type: cell-based, mouse; settings: 10 μM pretreatment 1 h, Aβ1–42 35 μM 16 h
Protocol: Cells were cultured in Dulbecco’s modified Eagle’s Medium-high glucose (DMEM, GlutaMAX ThermoFisher) supplemented with 10% inactivated fetal bovine serum heat (Thermo Fisher), 100 IU/mL penicillin (Merck), and 100 μg/mL streptomycin (Merck). Cells were cultured in flasks (area 175 cm^2, Nunc) and incubated at 37 °C, 5% CO2. To measure the neuroprotective effect against Aβ1–42, cells were placed in a 96-well culture plate (5 × 10^3 cells per well, Falcon). To measure the toxicity of tested compounds, cells were placed in a 96-well culture plate (5 × 10^3 and 2 × 10^4 cells per well, Falcon).
Stock solutions were prepared at a concentration of 10 mM for the tested compounds. A minimum of 1 mg of each tested compound was weighed and dissolved in an appropriate volume of dimethyl sulfoxide (DMSO). Serial dilutions were prepared in DMSO, and then, the diluted compounds were transferred to phosphate-buffered saline (PBS), mixed, and put into a medium with adherent cells. Before the assays, eventual precipitation or opalescence was checked. […]
Then, 20 μL of adenylate kinase detection reagent was added. The luminescence was measured after 10 min of incubation with a plate reader, POLARstar Omega (BMG Labtech). The results are expressed as a percentage of the control (Aβ1–42), corresponding to the percentage of dead cells concerning the control sample.

HT-22 cell line [5] = assay: protection against Aβ1–42, ROS (CellROX); assay type: cell-based, mouse; settings: 10 μM pretreatment 1 h, Aβ1–42 35 μM 16 h
Protocol: Cells were cultured in Dulbecco’s modified Eagle’s Medium-high glucose (DMEM, GlutaMAX ThermoFisher) supplemented with 10% inactivated fetal bovine serum heat (Thermo Fisher), 100 IU/mL penicillin (Merck), and 100 μg/mL streptomycin (Merck). Cells were cultured in flasks (area 175 cm^2, Nunc) and incubated at 37 °C, 5% CO2. To measure the neuroprotective effect against Aβ1–42, cells were placed in a 96-well culture plate (5 × 10^3 cells per well, Falcon).
Stock solutions were prepared at a concentration of 10 mM for the tested compounds. A minimum of 1 mg of each tested compound was weighed and dissolved in an appropriate volume of dimethyl sulfoxide (DMSO). Serial dilutions were prepared in DMSO, and then, the diluted compounds were transferred to phosphate-buffered saline (PBS), mixed, and put into a medium with adherent cells. Before the assays, eventual precipitation or opalescence was checked.
Aβ1–42 (Merck) was initially dissolved in 1,1,1,3,3,3- hexafluor-2-propanol (Merck). […] After this time, the Aβ1–42 solution was evaporated by using nitrogen gas. Next, DMSO was added to obtain a 2 mM stock solution of β-amyloid. […]
After the end of incubation with the tested compounds, the supernatant was removed, and cells were incubated with CellROX (5 μM) in DMEM FluoroBrite (ThermoFisher) for 1 h at 37 °C. The results are expressed as a percentage of control (Aβ1–42).

CN1CCN(c2nc(N)nc(C(C)(C)Sc3ccc4ccccc4c3)n2)CC1 [WA-22, 4-(4-methylpiperazin-1-yl)-6-(2-(naphthalen-2-ylthio)propan-2-yl)-1,3,5-triazin-2-amine]
ROS level (Ctr set as 100%) (SH-SY5Y cells [1]; compound 10 μM pretreatment 1 h, then ROT 32.5 μM 3 h): 128% | effect on ROS of compound alone (SH-SY5Y cells [1]; without ROT): did not exert any effect | mutagenic [2]: no | IC50 (SH-SY5Y cells [3]; Homo sapiens, 27 h, read-out: IC50 x̅ ± SD, MTS, SH-SY5Y, 27 h of exposure): > 200 µM | effect on cell viability (SH-SY5Y cells [3]; all tested concentrations (0–50 μM), 27 h): did not affect cell viability | IC50 (SH-SY5Y cells [3]; read-out: IC50 x̅ ± SD, MTS, 27 h of exposure): 238 ± 15 µM | Ki (5-HT7R): 0.607 µM | protection of cell integrity against membrane destruction caused by Aβ1–42 (HT-22 cell line [4]): neuroprotective activities | decrease of ROS induced by Aβ (HT-22 cell line [5]): only PPK-32 displayed the ability to decrease ROS
